# Patent US20240374612A1, “IMIDAZOBENZO[…] TREATMENT OF COGNITIVE AND MOOD SYMPTOMS” (UWM Research Foundation, Inc., priority 2021, published 2024)
# What was measured:
# [1] = system: C57/Bl6 mice subjected to chronic restraint stress (working memory deficit); assay: Y-maze alternation task after chronic restraint stress (CRS); format: in vivo; conditions: 10 mg/kg i.p., acute, 30 min before testing, vs CRS vehicle
# Description: Young Animals and chronic stress procedure: C57/Bl6 mice, males and females at 8 weeks old and are kept in normal housing conditions (12 h light ON cycle starting at 7 am/water and food ad libitum) for one week. During this week, animals are single housed and handled to reduce the anxiety-like response toward the experimenter. To induce a working memory deficit, mice are subjected to a chronic restraint stress protocol (CRS). They are placed in a 50 mL Falcon® tube, twice a day, for 1 hour during their diurnal cycle. The time of occurrence of the stress is randomized every day to avoid predictability. CRS is not applied on testing days. Y-maze test occurs 15 hours minimum after the last stressor.
# Protocol: Mice are first habituated to the Y-maze apparatus and distal cues during 2 consecutive days over a 10 min free exploration session (one session per day). The next day, animals perform a training session consisting in seven successive trials separated by a 30 s inter-trial interval (ITI); during this training session, mice are familiarized with the experimental procedure (opening and closing of the doors and confinement into the goal arms). For each trial, mice remain in the start-box for a 30 s ITI. Then, the door is opened and the mouse is allowed to enter freely one of the two goal arms; the chosen arm is closed and the choice is recorded. After a 30 s confinement period into the chosen arm, the mouse is removed and brought back to the start-box for a second trial identical to the first one and this procedure is repeated over the series of trials.
# The same general procedure used in the training session is implemented 24 h later, except that the ITI was lengthened to 90 s. For this experiment, animals are acutely injected i.p. with vehicle or drug, 30 minutes before the beginning of the test. To dissociate memory deficits from an eventual progressive loss of motivation to alternate over the series, an 8th trial is added to the series which is separated from the 7th trial by a shorter ITI (5 s). All animals failing to alternate at the 8th trial are excluded. The mean alternation rate is calculated and is expressed in percentage (number of alternation done by the animal/total number of alternation possible×100)±SEM. The percentage of alternation during the entire task is considered as an index of working memory performance (50% of being a random alternation rate). Factorial ANOVA is applied to the data to reveal differences between groups. If the ANOVA is significant for group effect (p<0.05), Scheffe post-hoc analysis are conducted to identify which groups are different from each other.
# Drug preparation and administration: All drugs are diluted in a vehicle solution containing 85% H2O, 14% propylene glycol (Sigma Aldrich) and 1% Tween 80 (Sigma Aldrich). Working solutions are prepared at a concentration of 10 mg/mL and administered i.p. adjusted to the body weight of each animal. Doses used are either 1, 5, 10 or 20 mg/kg. For all Y maze experiments, animals are acutely injected i.p. with vehicle or drug, 30 minutes before the beginning of the test.
# [2] = biological target: T1, α5β3γ2 GABAA receptor (Homo sapiens, UniProt P18507+P31644); assay: Electrophysiology in transfected cells (IonWorks Barracuda), PAM effect on current induced by 5 μM GABA; format: cell-based
# T1 construct: Full-length cDNAs for GABAA receptor subtypes are transfected into the human embryonic kidney cell line HEK-293T; expressed in transfected cells; host or cells: human mammalian cells (HEK-293T per Procedure B)
# T1 sequence (P31644 32-462): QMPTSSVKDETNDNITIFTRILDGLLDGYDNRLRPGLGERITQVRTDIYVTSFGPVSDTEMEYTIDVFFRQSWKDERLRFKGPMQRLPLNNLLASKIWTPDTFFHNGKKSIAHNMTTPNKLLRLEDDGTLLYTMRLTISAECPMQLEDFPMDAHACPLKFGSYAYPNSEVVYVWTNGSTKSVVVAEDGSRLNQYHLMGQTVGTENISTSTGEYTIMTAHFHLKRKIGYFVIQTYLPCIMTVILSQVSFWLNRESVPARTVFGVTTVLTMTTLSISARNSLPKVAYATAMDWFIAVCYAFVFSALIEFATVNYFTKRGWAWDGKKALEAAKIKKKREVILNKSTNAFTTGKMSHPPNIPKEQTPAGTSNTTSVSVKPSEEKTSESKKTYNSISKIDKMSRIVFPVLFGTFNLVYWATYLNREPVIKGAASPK
# T1 sequence (P28472 26-473 partner): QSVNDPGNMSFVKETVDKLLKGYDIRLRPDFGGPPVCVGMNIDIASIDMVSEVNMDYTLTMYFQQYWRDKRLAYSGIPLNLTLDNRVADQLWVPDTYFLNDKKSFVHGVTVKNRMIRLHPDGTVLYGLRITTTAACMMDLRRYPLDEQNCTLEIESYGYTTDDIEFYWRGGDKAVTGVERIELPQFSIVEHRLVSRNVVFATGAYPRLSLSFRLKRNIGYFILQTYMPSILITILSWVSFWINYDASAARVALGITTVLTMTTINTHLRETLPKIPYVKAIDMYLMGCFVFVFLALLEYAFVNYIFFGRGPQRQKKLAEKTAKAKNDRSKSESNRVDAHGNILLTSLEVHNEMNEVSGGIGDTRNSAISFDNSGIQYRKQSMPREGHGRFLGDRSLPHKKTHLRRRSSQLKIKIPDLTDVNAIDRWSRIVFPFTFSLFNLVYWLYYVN
# T1 sequence (P18507 40-475): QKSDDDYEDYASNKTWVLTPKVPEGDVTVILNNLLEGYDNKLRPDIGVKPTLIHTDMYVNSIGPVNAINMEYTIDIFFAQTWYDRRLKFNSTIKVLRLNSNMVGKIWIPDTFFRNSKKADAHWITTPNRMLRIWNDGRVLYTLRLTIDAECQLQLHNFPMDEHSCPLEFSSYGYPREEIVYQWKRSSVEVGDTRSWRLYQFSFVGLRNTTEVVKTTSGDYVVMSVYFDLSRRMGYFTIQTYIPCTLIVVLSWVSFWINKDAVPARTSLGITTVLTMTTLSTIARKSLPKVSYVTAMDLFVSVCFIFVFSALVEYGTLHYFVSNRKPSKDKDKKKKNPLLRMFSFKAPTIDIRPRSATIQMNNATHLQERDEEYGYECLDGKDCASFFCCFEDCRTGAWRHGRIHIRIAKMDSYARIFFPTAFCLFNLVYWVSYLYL
# Description: (§1) Procedure B: Full-length cDNAs for GABAA receptor subtypes are transfected into the human embryonic kidney cell line HEK-293T. All subtypes are rat clones except for α2, which is a human clone. Cells are patch-clamped at −50 mV in the whole-cell recording configuration. GABA is diluted into the bath and compounds are dissolved in DMSO and diluted into bath solution. Solutions containing GABA or GABA+ compounds are applied to cells for 5 s. Currents are recorded with an Axon 200B patch clamp amplifier. Data is normalized data current expressed as a percentage of the response to GABA alone for each cell.
# (§2) Electrophysiological Characterization of GL-III-68 by Procedure B: Human mammalian cells are transfected with human […] GABAA receptors. Cells are incubated with GL-III-68 at a range of concentrations from 0.03 μM to 100 μM. Currents are induced by stimulation with 5 μM GABA and recorded using the IonWorks Barracuda® test platform. Current is normalized to the current induced by 5 μM of GABA in the absence of any allosteric modulator. PAM effect of at different subtypes of GABA^A receptor. % of current was calculated relatively to current produced by 5 μM GABA alone (set to 100%) (FIG. 21). EC50 results are shown below.
# [3] = biological target: T2, α2β3γ2 GABAA receptor (Homo sapiens, UniProt P18507+P47869); assay: as above; format: cell-based
# T2 construct: Full-length cDNAs for GABAA receptor subtypes are transfected into the human embryonic kidney cell line HEK-293T; expressed in transfected cells; host or cells: human mammalian cells (HEK-293T per Procedure B)
# T2 sequence (P47869 29-451): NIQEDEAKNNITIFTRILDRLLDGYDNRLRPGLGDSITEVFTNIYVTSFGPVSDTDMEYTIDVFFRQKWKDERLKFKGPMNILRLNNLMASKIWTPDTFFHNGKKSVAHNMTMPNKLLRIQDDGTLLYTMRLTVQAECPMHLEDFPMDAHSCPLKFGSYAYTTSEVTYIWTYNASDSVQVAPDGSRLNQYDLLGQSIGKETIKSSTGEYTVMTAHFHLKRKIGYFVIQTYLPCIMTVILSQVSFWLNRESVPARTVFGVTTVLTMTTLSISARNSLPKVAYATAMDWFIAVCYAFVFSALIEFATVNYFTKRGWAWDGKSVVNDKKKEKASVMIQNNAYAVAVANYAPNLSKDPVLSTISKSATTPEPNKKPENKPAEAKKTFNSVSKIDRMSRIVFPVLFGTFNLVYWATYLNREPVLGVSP
# T2 sequence (P28472 26-473 partner): as the sequence (P28472 26-473 partner) above
# T2 sequence (P18507 40-475): as the sequence (P18507 40-475) above
# Description: as §1, §2
# [4] = biological target: T3, α1β3γ2 GABAA receptor (Homo sapiens, UniProt P14867+P18507); assay: as above; format: cell-based
# T3 construct: Full-length cDNAs for GABAA receptor subtypes are transfected into the human embryonic kidney cell line HEK-293T; expressed in transfected cells; host or cells: human mammalian cells (HEK-293T per Procedure B)
# T3 sequence (P14867 28-456): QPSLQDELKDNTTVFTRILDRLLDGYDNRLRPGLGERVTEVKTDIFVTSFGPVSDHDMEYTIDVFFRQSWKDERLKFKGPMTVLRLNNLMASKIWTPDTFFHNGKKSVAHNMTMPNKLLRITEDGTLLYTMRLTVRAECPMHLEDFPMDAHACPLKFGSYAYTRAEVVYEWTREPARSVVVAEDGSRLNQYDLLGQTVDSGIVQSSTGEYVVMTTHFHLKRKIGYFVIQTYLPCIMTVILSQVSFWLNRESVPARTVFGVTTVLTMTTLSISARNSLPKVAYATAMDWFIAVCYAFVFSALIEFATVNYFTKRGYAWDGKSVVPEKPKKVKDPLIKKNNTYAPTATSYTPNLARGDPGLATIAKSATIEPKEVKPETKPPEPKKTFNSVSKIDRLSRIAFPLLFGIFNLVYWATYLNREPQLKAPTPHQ
# T3 sequence (P28472 26-473 partner): as the sequence (P28472 26-473 partner) above
# T3 sequence (P18507 40-475): as the sequence (P18507 40-475) above
# Description: as §1, §2
# [5] = biological target: T4, α3β3γ2 GABAA receptor (Homo sapiens, UniProt P18507+P34903); assay: as above; format: cell-based
# T4 construct: Full-length cDNAs for GABAA receptor subtypes are transfected into the human embryonic kidney cell line HEK-293T; expressed in transfected cells; host or cells: human mammalian cells (HEK-293T per Procedure B)
# T4 sequence (P34903 29-492): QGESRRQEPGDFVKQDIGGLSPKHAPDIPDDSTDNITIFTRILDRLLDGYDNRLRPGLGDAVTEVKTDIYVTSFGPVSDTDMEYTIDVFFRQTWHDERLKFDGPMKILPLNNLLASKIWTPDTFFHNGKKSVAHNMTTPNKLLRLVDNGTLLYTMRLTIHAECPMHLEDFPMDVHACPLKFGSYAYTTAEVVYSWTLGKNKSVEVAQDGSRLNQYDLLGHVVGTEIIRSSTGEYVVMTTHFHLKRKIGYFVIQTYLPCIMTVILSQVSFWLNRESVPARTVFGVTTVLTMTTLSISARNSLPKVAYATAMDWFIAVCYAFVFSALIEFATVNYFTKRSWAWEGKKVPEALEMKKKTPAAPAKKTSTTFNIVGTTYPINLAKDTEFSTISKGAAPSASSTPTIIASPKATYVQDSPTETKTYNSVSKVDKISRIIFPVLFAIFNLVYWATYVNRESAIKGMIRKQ
# T4 sequence (P28472 26-473 partner): as the sequence (P28472 26-473 partner) above
# T4 sequence (P18507 40-475): as the sequence (P18507 40-475) above
# Description: as §1, §2
smiles,measurement,setting,value
"CCNC(=O)c1ncn2c1[C@@H](C)N=C(c1ccccc1F)c1cc(C3CC3)ccc1-2 [GL-III-68, (R)-8-Cyclopropyl-N-ethyl-6-(2-fluorophenyl)-4-methyl-4H-benzo[f]imidazo[1,5-a][1,4]diazepine-3-carboxamide]",reversal of CRS-induced reduction of alternation rate (Y-maze),[1],reversed
same,EC50,[2],< 0.03 µM
same,Emax,"[2]; α5β3γ2, % of current produced by 5 μM GABA alone (set to 100%)",188%
same,EC50,[3],1.91 µM
same,Emax,"[3]; α2β3γ2, % of current produced by 5 μM GABA alone (set to 100%)",224%
same,EC50,[4],10.7 µM
same,Emax,"[4]; α1β3γ2, % of current produced by 5 μM GABA alone (set to 100%)",188%
same,EC50,[5],3.52 µM
same,Emax,"[5]; α3β3γ2, % of current produced by 5 μM GABA alone (set to 100%)",209%
